Experimental data reported in patent publication US20240239794A1, “PKC-Theta Modulators” (Exscientia AI Limited, priority 2021, published 2024).
Where two headings read alike, the source gives them in different places.

How the values were obtained:
[1] = target: Recombinant human PKC-theta (His-tagged 362-706) (Homo sapiens (Human), UniProt Q04759); assay: PKC-theta inhibition assay (HTRF KinEASE kit); format: biochemical; conditions: ATP 6.5 μM
Description: (§1) PKC-theta and PKC-delta biochemical activities were measured using the PKC-theta HTRF KinEASEkit kit, according to manufacturer's instructions (Cisbio, catalogue number 61ST1PEJ). Briefly, the kinase buffer component of the kit was supplemented with 10 mM MgCl2, 1 mM DTT and 0.1% Tween 20. For the PKC-theta assay, STK substrate and ATP were added to provide a final assay concentration of 525 nM and 6.5 μM, respectively. For the PKC-delta assay, STK substrate and ATP were added to provide a final assay concentration of 243 nM and 5.7 μM, respectively. The streptavidin_XL665 and STK antibody-cryptate detection reagents were mixed according to the manufacturer's instructions. Test compounds were diluted in DMSO in a series of 10 semi-log step doses; 10 nL of each compound dose were dispensed in 384 well plates. Recombinant human PKC-theta (His-tagged 362-706) or PKC-delta (His-tagged 345-676) was diluted into kinase buffer to provide a final assay concentration of 10 ng/ml and added to the test compound for 30 minutes on ice. The reaction was started by addition of the substrate and ATP and incubated at 25° C. for 30 minutes or 20 minutes for the PKC-theta and PKC-delta assays, respectively. The detection reagents were added, and the plate was incubated in the dark for 2 hours. Fluorescence was measured on an Envision 2103 plate reader with optical setup for […] in the HTRF mode. The ratio of acceptor and donor emission signals was calculated for each well. Percent inhibition values were calculated from the HTRF ratios at different doses and fitted to a 4-parameter logistic curve to determine IC50 values (see Table 1).

[2] = system: IL-2 secretion by human effector memory T cells (TEM); assay: Effector memory T cells IL-2 release assay; format: cell-based; conditions: T-cell, human CD4+ TEM cells, CD3/CD28 bead stimulation, 24 h
Description: Test compound-mediated inhibition of NFκB signalling in T cells was assessed by quantification of the IL-2 secretion by human effector memory T cells (TEM) upon treatment and stimulation. Human TEM cells were isolated from buffy coats of healthy donors obtained from the French blood bank. First, peripheral blood mononuclear cells (PBMC) were purified from buffy coats diluted 1:1 with DPBS (Gibco, cat #14190-094) by Pancoll (PAN BIOTECH, cat #P04-60500) density gradient centrifugation at 400×g for 20 minutes. TEM cells were further enriched by negative immuno-magnetic cell sorting using a human CD4+ Effector Memory T Cell Isolation Kit (Miltenyi, cat #130-094-125) according to the manufacturer's instructions. Aliquots of 3×10E6 purified TEM cells were kept frozen in Cryo-SFM medium (PromoCell, cat #C-29912) in gas phase nitrogen until used. Cell purity was verified by flow cytometry analysis of 200 000 PFA-fixed cells previously labelled with monoclonal antibodies anti-CD4-PerCP-Cy5.5 (BD Pharmigen, cat #332772), anti-CD8-V500 (BD Biosciences, cat #561617), anti-CD14-Pacific Blue (Biolegend, cat #325616), anti-CD45 RA-FITC (Biolegend, cat #304106) and anti-CCR7-APC (in CD4+ Effector Memory T Cell Isolation Kit, Miltenyi, cat #130-094-125).
TEM cells were resuspended in complete RPMI medium composed of: RPMI 1640 (Gibco, cat #31870-025), 10% heat inactivated fetal bovine serum (Sigma, cat #F7524), 2 mM GlutaMAX (Gibco, cat #35050-038), 1 mM sodium pyruvate 100× (Gibco, cat #11360-039), 1% MEM non-essential amino acids solution (Gibco, cat #11140-035) and 100 U/mL penicillin, 100 µg/mL streptomycin (Sigma-Aldrich, cat #11074440001). 5,000 cells per well were plated onto flat clear bottom 384 well plates (Corning, cat #3770). 5,000 Dynabeads Human T-Activator CD3/CD28 (Gibco, cat #11132D) were added to each well for cell stimulation. Finally, 10 doses of test compound, originally prepared in DMSO by serial semi-log step dilution, were also added to cells in triplicate wells. Final DMSO concentration in wells was 0.1% in a total volume of 100 µL complete medium. Plates were incubated for 24 h at 37° C. in 5% CO2 atmosphere. After incubation, cell suspensions were centrifuged at 400×g and culture supernatants were recovered and stored at −80° C. Cell viability was assessed by flow cytometry after staining the cells with Fixable Viability Dye eFluor 780 (Invitrogen, cat #65-0865-14). IL-2 levels were determined in cell supernatants using an HTRF human IL-2 detection kit (Cisbio, cat #62HIL02PEH). IL-2 data at the different compound doses were fitted to a 4-parameter logistic curve to determine IC50 values, corresponding to the compound concentration leading to 50% reduction of the maximal IL-2 levels observed in each experiment. Viability data were analysed similarly to exclude cytotoxicity as a cause of IL-2 decrease (see Table 1).

[3] = target: Recombinant human PKC-delta (His-tagged 345-676) (Homo sapiens (Human), UniProt Q05655); assay: PKC-delta inhibition assay (HTRF KinEASE kit), PKC-theta/PKC-delta selectivity; format: biochemical; conditions: ratio; for PKC-theta/PKC-delta selectivity: PKC-theta over PKC-delta, HTRF assays; for PKC-theta/PKC-delta selectivity (binned): binned A to G
Sequence of Recombinant human PKC-delta (His-tagged 345-676) (Q05655 345-676): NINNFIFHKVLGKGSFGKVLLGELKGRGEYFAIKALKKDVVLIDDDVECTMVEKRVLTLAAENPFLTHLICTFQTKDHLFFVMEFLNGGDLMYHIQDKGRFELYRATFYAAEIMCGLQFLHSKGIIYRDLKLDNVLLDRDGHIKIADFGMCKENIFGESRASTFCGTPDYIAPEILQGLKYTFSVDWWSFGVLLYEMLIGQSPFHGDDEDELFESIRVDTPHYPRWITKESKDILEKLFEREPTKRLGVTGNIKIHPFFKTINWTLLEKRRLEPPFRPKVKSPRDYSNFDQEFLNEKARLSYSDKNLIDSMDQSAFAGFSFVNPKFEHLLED
Description: as §1

[4] = binned A to H, read-out: PKC-theta HTRF pIC50 (binned) (converted)
[5] = binned A to G, read-out: PKC-theta IL2 pIC50 (binned) (converted)
[6] = read-out: PKC-theta IL2 pIC50 (converted)
[7] = read-out: PKC-theta HTRF pIC50 (converted)

Sequence of Recombinant human PKC-theta (His-tagged 362-706) (Q04759 362-706): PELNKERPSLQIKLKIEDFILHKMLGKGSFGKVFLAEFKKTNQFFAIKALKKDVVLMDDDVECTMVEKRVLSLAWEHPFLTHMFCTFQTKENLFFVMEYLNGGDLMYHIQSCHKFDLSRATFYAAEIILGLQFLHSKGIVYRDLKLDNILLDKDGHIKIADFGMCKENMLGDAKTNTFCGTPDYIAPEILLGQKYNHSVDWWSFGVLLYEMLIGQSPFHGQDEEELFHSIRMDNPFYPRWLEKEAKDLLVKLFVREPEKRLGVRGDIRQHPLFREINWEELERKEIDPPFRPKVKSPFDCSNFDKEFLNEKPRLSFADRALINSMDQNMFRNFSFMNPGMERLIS

PKC-theta HTRF pIC50 [1]	IC50 [1, 4]	IC50 [2, 5]	IC50 [2, 6]	PKC-theta/PKC-delta selectivity [3]	PKC-theta/PKC-delta selectivity (binned) [3]	IC50 [1, 7]	SMILES
8.1	3.16 to 10 nM	100 to 316 nM	200 nM	11	D (D means a ratio of between 10 and 20)		CC1(O)C(=O)Nc2nccc(-c3cn(C4CCNCC4)c4ccccc34)c21 (stereo not drawn) [Example 12]
	≤ 1 nM	1 to 3.16 nM	1.58 nM	25	C (C means a ratio of between 20 and 30)	0.126 nM	CN[C@]1(C)C(=O)Nc2nccc(-c3nn(C4(CC#N)CCC4)c4ccccc34)c21 (single isomer, unassigned) [Example 95]
	31.6 to 100 nM	> 1000 nM	1260 nM	14	D (D means a ratio of between 10 and 20)	31.6 nM	CC[C@]1(O)C(=O)Nc2nccc(-c3nn([C@H]4CCNC[C@H]4F)c4ccccc34)c21 (single isomer, unassigned) [Example 84]
8.6	1 to 3.16 nM	31.6 to 100 nM	79.4 nM	22	C (C means a ratio of between 20 and 30)		CC1(Cn2nc(-c3ccnc4c3C(C)(C)C(=O)N4)c3ccccc32)COCCN1 (stereo not drawn) [Example 54, 3,3-dimethyl-4-[1-[(3-methylmorpholin-3-yl)methyl]indazol-3-yl]-1H-pyrrolo[2,3-b]pyridin-2-one]
8.7	1 to 3.16 nM	10 to 31.6 nM	25.1 nM	17	D (D means a ratio of between 10 and 20)		CC1(C)C(=O)Nc2nccc(-c3nn(CC4(F)CCNC4)c4ccccc34)c21 (stereo not drawn) [Example 96]
	≤ 1 nM	10 to 31.6 nM	10 nM	12	D (D means a ratio of between 10 and 20)	0.251 nM	CC[C@@]1(O)C(=O)Nc2nccc(-c3nn(C4(CC#N)CCC4)c4ccccc34)c21 (single isomer, unassigned) [Example 68]
	3.16 to 10 nM	316 to 1000 nM	316 nM	11	D (D means a ratio of between 10 and 20)	7.94 nM	C[C@@]1(O)C(=O)Nc2nccc(-c3nn(C4CCNCC4)c4c(OC(F)F)cccc34)c21 (single isomer, unassigned) [Example 43]
8.0	3.16 to 10 nM	316 to 1000 nM	316 nM	15	D (D means a ratio of between 10 and 20)		CC1(C)C(=O)Nc2nccc(-c3nn(C4(CC#N)CCC4)c4ccccc34)c21 [Example 22]
7.5	31.6 to 100 nM	100 to 316 nM	251 nM	14	D (D means a ratio of between 10 and 20)		CC1(C)C(=O)Nc2nccc(-c3nn(CC4(F)CCCNC4)c4ccccc34)c21 (stereo not drawn) [Example 44]
7.3	31.6 to 100 nM	> 1000 nM	1000 nM	9	E (E means a ratio of between 5 and 10)		CC1(C)C(=O)Nc2nccc(-c3cn(C4(CC#N)CCC4)c4ccccc34)c21 [Example 21, 2-[1-[3-(3,3-dimethyl-2-oxo-1H-pyrrolo[2,3-b]pyridin-4-yl)indol-1-yl]cyclobutyl]acetonitrile]
7.4	31.6 to 100 nM	316 to 1000 nM	631 nM	12	D (D means a ratio of between 10 and 20)		CC1(C)C(=O)Nc2nccc(-c3cn(C4CCNC4)c4ccccc34)c21 (stereo not drawn) [Example 10]
